From patent publication US20210000986A1, “INCLUSION COMPLEXES SUITABLE FOR USE AS A HISTOTRIPSY AGENT” (T.C ISTANBUL MEDIPOL ÜNIVERSITESI, priority 2018, published 2021)

Tests used:
[1] = Dynamic light scattering (DLS) size testing; format: physicochemical
Source text: The size of the complex plays an important role in determining the threshold for histotripsy. Small size particles are more easily injected and they accumulate highly in tumor tissue. […] The results obtained in the DLS tests are shown as a graph in FIG. 2. Herein BCD is beta-cyclodextrin; MBCD is methylated beta-cyclodextrin and MIC refers to the inclusion complex of methylated beta-cyclodextrin and perfluorohexane.

kidney HEK-293T cells = format: cell-based
Procedure: The cell viability test is important to determine how the methylated beta-cyclodextrin perfluorohexane inclusion complex interacts with cells in the body.
Inclusion complexes according to the invention were tested using kidney HEK-293T cells from the reticulo-endothelial system organs responsible for cleansing blood in the body and removing various particles and antigens from blood flow and forming inflammatory mediators against immunological stimuli.
For this purpose, beta-cyclodextrin (BCD), methylated beta-cyclodextrin (MCD) and methylated beta-cyclodextrin and perfluorohexane inclusion complex (MIC) solutions at a concentration of 0.1 mg/mL, 0.5 mg/mL and 1 mg/mL were prepared. In addition, perfluorohexane (PFH) at amounts of 0.1 μL, 0.13 μL, 0.15 μL were also tested on the same cells. The amount of perfluorohexane tested was based on the amount of perfluorohexane in 1 mg/mL MIC. It was determined that in 1 mg/mL MIC there is 0.15 μL of perfluorohexane.

Row | size (DLS) [1] [nm] | Compound | toxicity (conclusion from cell viability) (kidney HEK-293T cells) | cell viability (kidney HEK-293T cells; human, 0.15 μL) [%]
1 | 19.55 | methylated beta-cyclodextrin | – | –
2 | 16.42 | OC[C@H]1O[C@@H]2O[C@H]3[C@H](O)[C@@H](O)[C@@H](O[C@H]4[C@H](O)[C@@H](O)[C@@H](O[C@H]5[C@H](O)[C@@H](O)[C@@H](O[C@H]6[C@H](O)[C@@H](O)[C@@H](O[C@H]7[C@H](O)[C@@H](O)[C@@H](O[C@H]8[C@H](O)[C@@H](O)[C@@H](O[C@H]1[C@H](O)[C@H]2O)O[C@@H]8CO)O[C@@H]7CO)O[C@@H]6CO)O[C@@H]5CO)O[C@@H]4CO)O[C@@H]3CO [beta-cyclodextrin] | – | –
3 | – | FC(F)(F)C(F)(F)C(F)(F)C(F)(F)C(F)(F)C(F)(F)F [perfluorohexane] | not toxic | 89
